These results are taken from patent US20250154198A1, “PEPTIDE INHIBITORS OF INTERLEUKIN-23 RECEPTOR” (Zealand Pharma A/S, priority 2021, published 2025).

Like-named read-outs stand apart in the source and are kept apart here. *1 amine or outer side, *2 acyl side, *3 side chain or, on linkers, in order; H or OH if unused. Where a SMILES comes first, the peptide text is derived from it. Bridges are numbered along the chain shown (N, C = ends). [ ]: non-standard residue; d: D form. Lys(N3) = [N-]=[N+]=NCCCC[C@H](N)C(=O)O; 2Nal = N[C@@H](Cc1ccc2ccccc2c1)C(=O)O; AEF = NCCOc1ccc(C[C@H](N)C(=O)O)cc1; αMeL = CC(C)C[C@](C)(N)C(=O)O; CH2COCH2 = O=C(C[*:1])C[*:2]; 3Amb = NCc1cccc(C(=O)O)c1; Pra = C#CC[C@H](N)C(=O)O Some results are limits rather than exact numbers.

One series deals with T1, human IL-23R (Homo sapiens, UniProt Q5VWK5).
T1 construct: UniProtKB—Q5VWK5, amino acids 22-629; secretion signal of the plasmid (Promega N1371); expressed in transfected cells
T1 sequence (Q5VWK5 22-629): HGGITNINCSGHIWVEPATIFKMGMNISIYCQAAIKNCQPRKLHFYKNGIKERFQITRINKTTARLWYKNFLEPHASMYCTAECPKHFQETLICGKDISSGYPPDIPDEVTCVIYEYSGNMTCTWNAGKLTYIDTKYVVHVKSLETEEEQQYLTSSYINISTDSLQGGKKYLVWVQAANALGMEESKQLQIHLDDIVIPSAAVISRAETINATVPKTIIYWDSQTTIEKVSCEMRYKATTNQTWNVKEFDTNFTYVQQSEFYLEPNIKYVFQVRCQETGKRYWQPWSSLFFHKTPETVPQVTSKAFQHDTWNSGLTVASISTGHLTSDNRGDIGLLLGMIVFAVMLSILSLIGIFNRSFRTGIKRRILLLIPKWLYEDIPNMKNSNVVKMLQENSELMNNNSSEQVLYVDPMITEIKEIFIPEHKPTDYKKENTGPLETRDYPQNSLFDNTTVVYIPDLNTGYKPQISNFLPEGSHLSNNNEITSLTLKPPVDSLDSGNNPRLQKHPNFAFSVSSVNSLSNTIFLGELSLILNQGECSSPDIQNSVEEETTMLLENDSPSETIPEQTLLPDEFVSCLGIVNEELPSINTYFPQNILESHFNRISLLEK
The series is described as follows: Binding assay (NanoBRET displacement of fluorophore-labelled reference compound) for estimating binding affinity to human IL-23R. The conditions noted are these: for IL-23R inhibitory activity (in words): with reference to Ki and IC50 data of the Examples.

A short description of series [1]: Peptide stability in simulated intestinal fluid (SIF). The format is in vitro ADME. Conditions: pig, simulated intestinal fluid (SIF) with porcine pancreatin, Table 3-2, porcine pancreatin, pH 6.8, 37° C., 10 μM; for remaining at 1 h, 10 μM: read-out: SIF (% remaining 1 h); for remaining at 4 h, 10 μM: read-out: SIF (% remaining 4 h). The method, boiled down:
(§1)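 Peptides incubated at 37°C with gentle shaking in SGF (NaCl, HCl, pH 1.2) or SIF (phosphate pH 6.8 with 10 g/L porcine pancreatin). Samples analysed by LC-HRMS; percent remaining at each timepoint calculated from absolute peak areas relative to time zero.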

Series [2] in a line: Peptide stability in simulated gastric fluid (SGF). The format is in vitro ADME. Conditions: pig, simulated gastric fluid (SGF) with porcine pepsin, Table 3-3, porcine pepsin, pH 1.2, 37° C., 10 μM; for remaining at 1 h, 10 μM: read-out: SGF (% remaining 1 h); for remaining at 4 h, 10 μM: read-out: SGF (% remaining 4 h). Summed up: as §1
In series [3] the target is IL-23 mediated phospho-STAT3 formation in DB cells (Homo sapiens, UniProt Q5VWK5). Nature of the series: Functional inhibition of IL-23 mediated STAT3 signalling (phospho-STAT3 Tyr705 MSD) in DB cells. It counts as cell-based. The conditions noted are these: DB cells, read-out: IC50 (pSTAT3). Summed up: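 DB cells preincubated 15 min with compound at 37° C, then stimulated 90 min with hIL-23 at EC80. Lysate phospho-STAT3 measured by MSD, normalized to IL-23-alone and buffer wells; IC50 and maximal % inhibition from 4PL fit.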

The target of series [4] is T2, Nluc-IL23R fusion protein (human, UniProt Q5VWK5 22-629).
T2 construct: range 22-629; Stably expressed in HEK293 cells; also called hIL-23R; human IL-23R fused to a Nanoluc luciferase enzyme; not shown: Nanoluc luciferase (Promega N1371 plasmid) at the N-terminus
T2 sequence (looked up): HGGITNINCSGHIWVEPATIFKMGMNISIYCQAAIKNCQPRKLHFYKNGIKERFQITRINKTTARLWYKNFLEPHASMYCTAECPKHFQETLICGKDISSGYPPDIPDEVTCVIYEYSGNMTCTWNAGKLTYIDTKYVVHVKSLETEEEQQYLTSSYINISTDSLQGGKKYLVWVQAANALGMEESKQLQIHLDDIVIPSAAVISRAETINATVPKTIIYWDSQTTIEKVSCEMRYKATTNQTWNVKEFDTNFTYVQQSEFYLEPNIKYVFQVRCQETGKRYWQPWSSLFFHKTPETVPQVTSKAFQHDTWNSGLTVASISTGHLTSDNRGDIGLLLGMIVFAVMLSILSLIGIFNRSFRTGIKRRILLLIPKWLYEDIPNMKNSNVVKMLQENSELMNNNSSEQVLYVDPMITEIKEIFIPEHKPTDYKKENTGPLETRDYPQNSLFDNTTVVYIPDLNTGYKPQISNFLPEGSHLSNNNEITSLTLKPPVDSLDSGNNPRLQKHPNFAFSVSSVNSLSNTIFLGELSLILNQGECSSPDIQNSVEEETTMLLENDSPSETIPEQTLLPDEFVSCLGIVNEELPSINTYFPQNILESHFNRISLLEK
Nature of the series: BRET displacement of TAMRA-labelled peptide, Nluc-IL23R membranes. For orientation: In BRET a luciferase serves as donor, and the signal depends on an acceptor being close.

The mark [5] stands for this setting: Table 3-1, read-out: Ki hIL-23R.

What is called Ki is the equilibrium dissociation constant of an inhibitor or competing ligand from its target. For orientation: share remaining means what is left of the initial amount, in per cent. By IC50 is commonly meant the midpoint of a concentration-inhibition curve. With `CC(=O)N[C@@H](CC(=O)O)C(=O)N[C@H]1CCC(=O)NCCCC[C@@H](C(=O)N[C@@H](CCCNC(=N)N)C(N)=O)NC(=O)[C@H](CC(C)C)NC(=O)[C@H](Cc2c[nH]c3ccccc23)NC(=O)[C@H](Cc2c[nH]c3ccccc23)NC(=O)[C@@H]2CSCC(=O)CSC[C@H](NC1=O)C(=O)N[C@@H](Cc1c[nH]c3ccccc13)C(=O)N[C@@H](CCC(N)=O)C(=O)N2` [Ref 5, [Ac]-DE(1c)C(2a)WQC(2a)WWLK(1c)R-[NH2], reference compound] (HELM PEPTIDE1{[ac].D.E.C.W.Q.C.W.W.L.K.R.[am]}|CHEM1{[O=C(C[*:1])C[*:2]]}$PEPTIDE1,PEPTIDE1,3:R3-11:R3|PEPTIDE1,CHEM1,4:R3-1:R1|PEPTIDE1,CHEM1,7:R3-1:R2$$$V2.0), on human IL-23R (setting [5]), the Ki is over 1 µM. Besides, the “IL-23R inhibitory activity (in words)” value on human IL-23R was “inactive”. In addition, in series [1], the fraction remaining at 1 h, 10 μM was 0% and the share remaining at 4 h, 10 μM is 0%. Moreover, in series [2], the share remaining at 1 h, 10 μM is 1% and the share remaining at 4 h, 10 μM is 0%. Further, in series [3] (Table 3-1), the IC50 was over 1 µM.

Regarding `CC(=O)N[C@@H](CC(=O)O)C(=O)N[C@H]1CCC(=O)NCCCC[C@@H](C(=O)N[C@@H](CCCNC(=N)N)C(N)=O)NC(=O)[C@H](CC(C)C)NC(=O)[C@H](Cc2c[nH]c3ccccc23)NC(=O)[C@H](Cc2c[nH]c3ccccc23)NC(=O)[C@@H]2CSCC(=O)CSC[C@H](NC(=O)[C@H](CO)NC1=O)C(=O)N[C@@H](Cc1c[nH]c3ccccc13)C(=O)N2` [Ref 6, [Ac]-DE(1c)SC(2a)WC(2a)WWLK(1c)R-[NH2], reference compound] (HELM PEPTIDE1{[ac].D.E.S.C.W.C.W.W.L.K.R.[am]}|CHEM1{[O=C(C[*:1])C[*:2]]}$PEPTIDE1,PEPTIDE1,3:R3-11:R3|PEPTIDE1,CHEM1,5:R3-1:R1|PEPTIDE1,CHEM1,7:R3-1:R2$$$V2.0), the Ki at human IL-23R (setting [5]) is over 1 µM. Besides, the “IL-23R inhibitory activity (in words)” value on human IL-23R was “inactive”. Further, in series [1], the amount remaining at 1 h, 10 μM was 0% and the amount remaining at 4 h, 10 μM was 0%. For the same molecule, in series [2], the fraction remaining at 1 h, 10 μM is 0% and the share remaining at 4 h, 10 μM is 0%. Further, the IC50 in series [3] (Table 3-1) was over 1 µM.

For the molecule `CC(=O)N[C@@H](CC(=O)O)C(=O)N[C@H]1CCCCNC(=O)CC[C@@H](C(=O)N[C@@H](CCCNC(=N)N)C(N)=O)NC(=O)[C@H](CC(C)C)NC(=O)[C@H](Cc2c[nH]c3ccccc23)NC(=O)[C@H](Cc2c[nH]c3ccccc23)NC(=O)[C@@H]2CSCC(=O)CSC[C@H](NC(=O)[C@H](CO)NC1=O)C(=O)N[C@@H](Cc1c[nH]c3ccccc13)C(=O)N[C@@H](CCC(N)=O)C(=O)N2` [Compound 7, [Ac]-DK(1c)SC(2a)WQC(2a)WWLE(1c)R-[NH2]] (HELM PEPTIDE1{[ac].D.K.S.C.W.Q.C.W.W.L.E.R.[am]}|CHEM1{[O=C(C[*:1])C[*:2]]}$PEPTIDE1,PEPTIDE1,3:R3-12:R3|PEPTIDE1,CHEM1,5:R3-1:R1|PEPTIDE1,CHEM1,8:R3-1:R2$$$V2.0), at human IL-23R (Compound 7 (amide closer to position 11) versus Compound 4 (closer to position 2), Table 2-3b), the “potency depending on location of the amide bond in the [2,11] lactam bridge (in words)” value is listed as “more active”. Besides, the Ki at human IL-23R (Table 2-3b, read-out: Ki IL-23R) was 0.0268 µM. For the same molecule, in series [1], the share remaining at 1 h, 10 μM is 0% and the amount remaining at 4 h, 10 μM was 0%. Also, in series [2], the amount remaining at 1 h, 10 μM is 0% and the amount remaining at 4 h, 10 μM was 0%. Further, the half-inhibitory concentration (IC50) in series [3] (Table 2-3b) is 0.159 µM.

B1: Compound 40 (peptide)
peptide: [3Amb]SCWQCW[2Nal][αMeL]ER-NH2
modifications: lactam N-10; linker 3-6 via CH2COCH2
SMILES: CC(C)C[C@]1(C)NC(=O)[C@H](Cc2ccc3ccccc3c2)NC(=O)[C@H](Cc2c[nH]c3ccccc23)NC(=O)[C@@H]2CSCC(=O)CSC[C@H](NC(=O)[C@H](CO)NC(=O)c3cccc(c3)CNC(=O)CC[C@@H](C(=O)N[C@@H](CCCNC(=N)N)C(N)=O)NC1=O)C(=O)N[C@@H](Cc1c[nH]c3ccccc13)C(=O)N[C@@H](CCC(N)=O)C(=O)N2
In turn, B1 displayed an inhibition constant (Ki) in series [4] of 0.0181 µM.

B2: Compound 34 (peptide)
peptide: GKTCWECWWXES
HELM: PEPTIDE1{[ac].G.K.T.C.W.E.C.W.W.[CC(C)C[C@](C)(N[*:1])C(=O)[*:2]].E.S.[am]}|CHEM1{[O=C(C[*:1])C[*:2]]}$PEPTIDE1,PEPTIDE1,3:R3-12:R3|PEPTIDE1,CHEM1,5:R3-1:R1|PEPTIDE1,CHEM1,8:R3-1:R2$$$V2.0
SMILES: CC(=O)NCC(=O)N[C@H]1CCCCNC(=O)CC[C@@H](C(=O)N[C@@H](CO)C(N)=O)NC(=O)[C@](C)(CC(C)C)NC(=O)[C@H](Cc2c[nH]c3ccccc23)NC(=O)[C@H](Cc2c[nH]c3ccccc23)NC(=O)[C@@H]2CSCC(=O)CSC[C@H](NC(=O)[C@H]([C@@H](C)O)NC1=O)C(=O)N[C@@H](Cc1c[nH]c3ccccc13)C(=O)N[C@@H](CCC(=O)O)C(=O)N2
In series [4], B2 registered a Ki of 0.065 µM.

B3: Compound 23 (peptide)
peptide: Ac-DKS[Lys(N3)]WQ[Pra]W[2Nal]LER-NH2
modifications: lactam 2-11; triazole 4-7
B3 displayed a Ki in series [4] of 0.117 µM.

B4: Compound 3 (peptide)
peptide: H-DCSCWECWWLCR-NH2
modifications: linker 2-11, 4-7 via CH2COCH2
Turning to B4, the affinity in series [4], expressed as Ki, was 0.205 µM.

B5: Compound 33 (peptide)
peptide: Ac-CTCWECWW[αMeL]CS-NH2
modifications: linker 1-10, 3-6 via CH2COCH2
SMILES: CC(=O)N[C@H]1CSCC(=O)CSC[C@@H](C(=O)N[C@@H](CO)C(N)=O)NC(=O)[C@](C)(CC(C)C)NC(=O)[C@H](Cc2c[nH]c3ccccc23)NC(=O)[C@H](Cc2c[nH]c3ccccc23)NC(=O)[C@@H]2CSCC(=O)CSC[C@H](NC(=O)[C@H]([C@@H](C)O)NC1=O)C(=O)N[C@@H](Cc1c[nH]c3ccccc13)C(=O)N[C@@H](CCC(=O)O)C(=O)N2
Take B5: in series [4], the affinity corresponds to a Ki of 0.189 µM.

B6: Compound 54 (peptide)
peptide: Ac-KSCWQC[AEF][2Nal]LER-NH2
modifications: lactam 1-10; disulfide 3-6
Molecule B6 registered a Ki in series [4] of 0.178 µM.

B7: Compound 35 (peptide)
peptide: Ac-GCTCWECW[2Nal][αMeL]CR-NH2
modifications: linker 2-11, 4-7 via CH2COCH2
SMILES: CC(=O)NCC(=O)N[C@H]1CSCC(=O)CSC[C@@H](C(=O)N[C@@H](CCCNC(=N)N)C(N)=O)NC(=O)[C@](C)(CC(C)C)NC(=O)[C@H](Cc2ccc3ccccc3c2)NC(=O)[C@H](Cc2c[nH]c3ccccc23)NC(=O)[C@@H]2CSCC(=O)CSC[C@H](NC(=O)[C@H]([C@@H](C)O)NC1=O)C(=O)N[C@@H](Cc1c[nH]c3ccccc13)C(=O)N[C@@H](CCC(=O)O)C(=O)N2
Molecule B7 registered a Ki in series [4] of 0.0412 µM.
